Tests used:
arginine loaded dogs = experiment: Infusion of glicentin and glucagon into the pancreatic artery of arginine loaded dogs; plasma hormones and blood glucose; format: in vivo, dog; details: glicentin 100 pmol or 400 pmol infused into pancreatic artery for 10 minutes
Procedure: Healthy mongrel dogs weighing 13 to 17 kg were subjected to the test after an overnight fast (A. Ohneda et al., Horm. Metab. Res., 9, 447-452 (1977)).
The animals were anesthetized with sodium pentobarbital (Nembutal®) and their abdomens were opened. […] After the operation was completed, saline solution containing 0.5% arginine was infused into the pancreatic artery at a constant rate of 2 ml/min through the cannula using an infusion pump. […] 4 ml portions of blood samples for hormone assay were collected at various intervals into a glass tube containing 1000 KIU aprotinine and 10 mg EDTA.
The plasma insulin was measured in accordance with a known method mentioned in C.
The blood glucose was measured for blood drawn from the femoral artery by the glucose oxidase method using a test kit for the determination of blood glucose (available from Wako Pure Chemical Industries, Japan under the trade name of "Glucose B-Test Wako").

male MALB/c mice = experiment: Intraperitoneal administration to mice, observation of appearance; format: in vivo; details: 10 mg/kg intraperitoneally, male MALB/c mice (6 weeks age)

With “human glicentin (natural type): peptide of 69 amino acid residues, SEQ ID NO:2, produced by genetic engineering in E. coli” as the substance, how does the “insulin secretion (plasma insulin, IRI)” value (arginine loaded dogs; anesthetized dogs under 0.5% arginine infusion) read?
Its value is “stimulates insulin secretion”.

And the “glucagon level (IRG(G 21))” value (arginine loaded dogs; antiserum G 21)?
Its value is “not increased”.

And the blood glucose levels (arginine loaded dogs; blood from femoral artery, glucose oxidase method)?
Its blood glucose levels is “no change in blood glucose levels”.

And the change in appearance (male MALB/c mice)?
Its change in appearance is “no change in appearance”.
